Laboratory results: article PMC3834954, “Design, Synthesis and in Vitro Degradation of a Novel Co-Drug for the Treatment of Psoriasis” (Pharmaceutics, 2013)

Test system: porcine liver esterase (PLE)
Assay: HPLC of naproxen release, initial rates, Lineweaver-Burk
Assay type: biochemical, Sus scrofa
Settings: PBS, 5% acetonitrile, 25 °C, 120 IU/mL PLE, 29-91 μM substrate; ester hydrolysis

Structure (SMILES): COc1ccc2cc(C(C)C(=O)Oc3cccc4c3C(=O)c3c(O)cccc3C4)ccc2c1 (stereo not shown) [compound 8, 8-Hydroxy-9-oxo-9,10-dihydroanthracen-1-yl 2-(6-methoxynaphthalen-2-yl)propanoate]
- Km: 65.1 ± 0.99 µM
